Legend:
[1] = Delivery of cG-2-AllylP into CSF, blood and brain after single oral gavage dose; type: in vivo, male Sprague Dawley rats; conditions: for Mean Test Article Exposure, Blood / Mean Test Article Exposure, CSF / Mean Test Article Exposure, Brain: rat
Procedure: In an in vivo study, male Sprague Dawley rats (aged 14 weeks) received a single dose of cG-2-AllylP, either 100 mg/kg or 200 mg/kg by oral gavage. Cerebrospinal fluid (CSF) and whole blood were collected at 1.5 and 4 hours post-dose, and brain tissue was collected at 4 hours post-dose to evaluate cG-2-AllylP exposure.

Magel2-null mice [2] = assay: Partition test of social preference; type: in vivo, mouse; design: key: **** = p < 0.0001; ns = not significant
Text: (§1) The mouse locus 7qB4/B5 (syntenic with the Prader-Willi region at chromosome position 15q11-q13 in humans) encompasses the cluster of paternally-expressed imprinted genes Magel2, Ndn, Mkrn3, and Peg12. As maternal imprinting silences the Magel2 allele, only the paternally inherited Magel2 allele is expressed. Heterozygous females were bred with wild-type males (or C57BL/6J inbred males) to maintain the line; as the resulting offspring will have no abnormal phenotype. To obtain “Magel2-null” offspring (both maternal and paternal Magel2 alleles are non-functional), wild-type females are bred with heterozygous males; allowing maternal transmission of the imprinted/silenced wild-type allele and paternal transmission of the Magel2-lacZ (null) allele. Magel2-null mice have disrupted circadian rhythm and metabolism, total activity, food consumption, weight before weaning, and fertility in both sexes, as well as increased adiposity after weaning and altered behavior. Magel2-null mice on this C57BL/6J genetic background recapitulate Prader-Willi syndrome. Because the genetic mutation in the Magel2-null animals is the same as the mutation in human beings, studies in Magel2-null mice are reasonably predictive of effects of compounds in human beings.
(§2) In vivo experiments were conducted in C57BL/6-Magel2tm1Stw/J (Magel2-null) mice at age P60 and their wild-type littermates during the light phase (littermates that were wild-type for Magel2 were used as controls). Ten mice per treatment group were used for studies 1 and 2, and six mice per group for study 3. In study 1: C57BL/6-Magel2tm1Stw/J (Magel2-null) mice were assessed on behavioral assays. Study 2 tested the efficacy of cG-2-AllylP in treating obesity and insulin levels in Magel2-null mice. Study 3 tested the IGF-1 level in Magel2-null mice. Because human beings have the same genetic abnormality, studies of Magel2-null mice are reasonably predictive of effects of compounds of Formulas I, II, III and IV in human beings with Prader-Willi Syndrome.
(§3) Testing was performed during the light phase of the circadian cycle, with the order of testing being determined by the principle of conducting the most stressful tests last. Assays were designed to reproduce and expand on the original behavioral characterization of Magel2-null mice. Magel2-null and wild-type control mice were dosed once daily for 6 weeks prior to testing and tested 30 minutes following a dose of cG-2-AllylP (NNZ2591). Study groups and the treatment matrix are described in Table 2 below.
People with Prader-Willi Syndrome show deficits in social behavior compared with people without Prader-Willi Syndrome. Two tests were carried out to assess the social behavior deficits of Magel2-null mice.
The partition test of social preference measures the preference shown for an object versus a familiar mouse.

Magel2-null mice [3] = assay: Elevated Plus Maze (time in open arms); type: in vivo, mouse; design: key: **** = p < 0.0001; ns = not significant
Text: as §1, §2, §3
The Elevated Plus Maze test is used to assess anxiety related behaviors. Normal mice show a preference for being in closed arms over open arms.

Magel2-null mice [4] = assay: Fat mass in female Magel2-null mice; type: in vivo, mouse; design: key: **** = p < 0.0001; ns = not significant
Procedure: as §2, §3
Prader-Willi Syndrome is associated with metabolic and hormonal abnormalities in humans. Magel2-null mice recapitulate some of the metabolic and hormonal aspects of humans with Prader-Willi Syndrome. Experiments were conducted to determine if cG-2-AllylP could have a normalizing effect in metabolic and hormonal aspects.
Because female Magel2-null mice present a significant increase in body weight compared with their littermate wild-type controls, female Magel2-null mice were used for this study.

[5] = test system: subjects with Prader-Willi syndrome; assay: Proposed randomized, double-blind placebo controlled study in subjects with Prader-Willi syndrome; type: in vivo, human
Text: For the proposed study thirty subjects with Prader-Willi syndrome are recruited. Subjects are females and males aged between 4 and 20 years (Mean=12.1 SD=4.4). All subjects have confirmed loss of function in the 15q11-q13 region on the paternal copy of chromosome 15 and also meet diagnostic criteria for Prader-Willi syndrome based on assessment of behavioral and somatic symptoms. The majority of subjects (72%) are being treated with rhGH at screening. Subjects are instructed that concomitant medications are to be stable for at least six weeks prior to study.
The study is a randomized, double-blind placebo controlled parallel study with subjects randomized 1:1:1 to placebo, 6 mg/kg or 12 mg/kg of Cyclo-L-Glycyl-L-2-Allylproline is to be administered as an oral liquid twice daily for eighty-four days.
Subjects are tested at baseline using the following instruments: the Hyperphagia Questionnaire for Clinical Trials (HQ-CT), the Clinical Global Impression of Severity (CGI-S), the Caregiver Global Impression of Change (CaGI-I), the Aberrant Behavior Checklist (ABC) and ABC Subscales, the Social Responsiveness Scale, the Repetitive Behavior Scale-Revised (RBS-R), the PWS Anxiety and Distress Questionnaire (PADQ) and the Children's Yale-Brown Obsessive-Compulsive Scale (CY-BOCS). In addition, the following measurements are made at baseline: Body Fat Assessment (BFA), fasting blood glucose, blood lipids (HDL, LDL, VLDL, triglycerides), serum IGF-1 (total, bound to IGF-1 Binding Protein-3 [IGFBP-3]), fasting insulin and the Homeostatic Model Assessment for Insulin Resistance (HOMA-IR).
The effect of treatment with Cyclo-L-Glycyl-L-2-Allylproline is analyzed by conducting a repeated analysis of covariance (ANCOVA) on change from baseline scores for each of the measures plus the Clinical Global Impression of Change (CGI-I). Safety is assessed using caregiver reports of adverse events, a panel of standard laboratory tests and electrocardiograms (ECG).

[6] = single oral dose 100 mg/kg, 1.5 h post-dose
[7] = single oral dose 100 mg/kg, 4 h post-dose
[8] = single oral dose 200 mg/kg, 1.5 h post-dose
[9] = single oral dose 200 mg/kg, 4 h post-dose
[10] = Magel2-null + Vehicle vs. Magel2-null + NNZ2591 (100 mg/kg)
[11] = Magel2-null + Vehicle vs. Magel2-null + NNZ2591 (200 mg/kg)
[12] = WT + NNZ2591 (100 mg/kg) vs. Magel2-null + NNZ2591 (100 mg/kg)
[13] = WT + NNZ2591 (200 mg/kg) vs. Magel2-null + NNZ2591 (200 mg/kg)
[14] = WT + Vehicle vs. WT + NNZ2591 (100 mg/kg)
[15] = WT + Vehicle vs. WT + NNZ2591 (200 mg/kg)
[16] = 6 mg/kg or 12 mg/kg oral liquid twice daily for eighty-four days
[17] = 6 mg/kg or 12 mg/kg oral liquid twice daily for eighty-four days vs placebo

SMILES: C=CCC12CCCN1C(=O)CNC2=O [cG-2-AllylP, (8aS)-Allyl-hexahydropyrrolo[1,2-a]pyrazine-1,4-dione]
- Concentration in blood versus brain tissue ([1]; 4 hours post-dose): approximately equivalent
- Dose dependence of concentration ([1]; blood and CSF at 1.5 hours, blood, CSF and brain at 4 hours, single oral dose 100 vs 200 mg/kg): approximately proportional increase
- Mean Test Article Exposure, Blood [1, 6]: 58.5 µg/mL
- Mean Test Article Exposure, CSF [1, 6]: 40.4 µg/mL
- Mean Test Article Exposure, Blood [1, 7]: 15.6 µg/mL
- Mean Test Article Exposure, Brain [1, 7]: 22.6 µg/mL
- Mean Test Article Exposure, CSF [1, 7]: 11.0 µg/mL
- Mean Test Article Exposure, Blood [1, 8]: 116.0 µg/mL
- Mean Test Article Exposure, CSF [1, 8]: 82.2 µg/mL
- Mean Test Article Exposure, Blood [1, 9]: 34.2 µg/mL
- Mean Test Article Exposure, Brain [1, 9]: 37.0 µg/mL
- Mean Test Article Exposure, CSF [1, 9]: 24.7 µg/mL
- Social preference, Sidak's multiple comparisons test, Summary (Magel2-null mice [2]; [10]): **** (**** = p < 0.0001)
- Social preference, Sidak's multiple comparisons test, Summary (Magel2-null mice [2]; [11]): **** (**** = p < 0.0001)
- Social preference, Sidak's multiple comparisons test, Summary (Magel2-null mice [2]; [12]): ns
- Social preference, Sidak's multiple comparisons test, Summary (Magel2-null mice [2]; WT + NNZ2591 (100 mg/kg) vs. Magel2-null + NNZ2591 (200 mg/kg)): ns
- Social preference, Sidak's multiple comparisons test, Summary (Magel2-null mice [2]; [13]): ns
- Social preference, Sidak's multiple comparisons test, Summary (Magel2-null mice [2]; [14]): ns
- Social preference, Sidak's multiple comparisons test, Summary (Magel2-null mice [2]; [15]): ns
- Elevated plus maze (time in open arm), Sidak's multiple comparisons test, Summary (Magel2-null mice [3]; [10]): **** (**** = p < 0.0001)
- Elevated plus maze (time in open arm), Sidak's multiple comparisons test, Summary (Magel2-null mice [3]; [11]): **** (**** = p < 0.0001)
- Elevated plus maze (time in open arm), Sidak's multiple comparisons test, Summary (Magel2-null mice [3]; [12]): ns
- Elevated plus maze (time in open arm), Sidak's multiple comparisons test, Summary (Magel2-null mice [3]; [13]): ns
- Elevated plus maze (time in open arm), Sidak's multiple comparisons test, Summary (Magel2-null mice [3]; WT + Vehicle vs WT + NNZ2591 (100 mg/kg)): ns
- Elevated plus maze (time in open arm), Sidak's multiple comparisons test, Summary (Magel2-null mice [3]; [15]): ns
- Effect on fat mass, Sidak's multiple comparisons test, Summary (Magel2-null mice [4]; [10]): ns
- Effect on fat mass, Sidak's multiple comparisons test, Summary (Magel2-null mice [4]; [11]): **** (**** = p < 0.0001)
- Effect on fat mass, Sidak's multiple comparisons test, Summary (Magel2-null mice [4]; [13]): ns
- Effect on fat mass, Sidak's multiple comparisons test, Summary (Magel2-null mice [4]; [14]): ns
- Effect on fat mass, Sidak's multiple comparisons test, Summary (Magel2-null mice [4]; [15]): ns
- Duration and severity of adverse events [5, 16]: short duration and mild severity
- Serious Adverse Events [5, 16]: No Serious Adverse Events are reported
- Incidence of treatment-emergent adverse events [5, 17]: no difference in the incidence of treatment-emergent adverse events between placebo and either dose
- Laboratory tests and ECG measures [5, 17]: no treatment-related pattern of abnormalities on laboratory tests or ECG measures
